Results: the NIST ThermoML archive (doi:10.1021/je700690q)
± gives the expanded uncertainty stated by the source.

Conditions: Liquid, Closed cell (Static) method

Row | vapor or sublimation pressure (364.52 K) | Structure (SMILES) | also measured
1 | – | CCCO [propan-1-ol] | vapor or sublimation pressure (364.53 K): 81.2 ± 0.9 kPa
2 | – | CC(C)O [propan-2-ol] | vapor or sublimation pressure (364.51 K): 144.1 ± 1 kPa
3 | 143.3 ± 1 kPa | CC(C)(C)O [2-methylpropan-2-ol] | –
4 | 1268.7 ± 5.7 kPa [middle of 5 runs] | C/C=C/C [(E)-2-butene] | –
5 | 267.6 ± 1.4 kPa | CO [methanol] | –
6 | 75.4 ± 0.9 kPa | CCC(C)O (stereo unspecified) [butan-2-ol] | –
